PubChem BioAssay AID504473 (NMMLSC, 2011)
Activity calls are given as the source filed them.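 Rule for the calls: active = GFP ratio to DMSO above 1.5 or below 0.66; inactive = the rest.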

How the values were obtained:
Assay in all cases: TOR pathway GFP reporter clone modulation in yeast – S. cerevisiae, GFP-tagged clone panel, flow cytometry (AID 504473);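 note: median GFP fluorescence of the cells measured by high-throughput flow cytometry; test concentration not given here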
[1] = biological target: General amino acid permease AGP1 (Saccharomyces cerevisiae S288c) (UniProt P25376); details: S. cerevisiae GFP-tagged strains, 3 h, YCL025C
General amino acid permease AGP1 (Saccharomyces cerevisiae S288c), sequence (P25376 whole entry, looked up): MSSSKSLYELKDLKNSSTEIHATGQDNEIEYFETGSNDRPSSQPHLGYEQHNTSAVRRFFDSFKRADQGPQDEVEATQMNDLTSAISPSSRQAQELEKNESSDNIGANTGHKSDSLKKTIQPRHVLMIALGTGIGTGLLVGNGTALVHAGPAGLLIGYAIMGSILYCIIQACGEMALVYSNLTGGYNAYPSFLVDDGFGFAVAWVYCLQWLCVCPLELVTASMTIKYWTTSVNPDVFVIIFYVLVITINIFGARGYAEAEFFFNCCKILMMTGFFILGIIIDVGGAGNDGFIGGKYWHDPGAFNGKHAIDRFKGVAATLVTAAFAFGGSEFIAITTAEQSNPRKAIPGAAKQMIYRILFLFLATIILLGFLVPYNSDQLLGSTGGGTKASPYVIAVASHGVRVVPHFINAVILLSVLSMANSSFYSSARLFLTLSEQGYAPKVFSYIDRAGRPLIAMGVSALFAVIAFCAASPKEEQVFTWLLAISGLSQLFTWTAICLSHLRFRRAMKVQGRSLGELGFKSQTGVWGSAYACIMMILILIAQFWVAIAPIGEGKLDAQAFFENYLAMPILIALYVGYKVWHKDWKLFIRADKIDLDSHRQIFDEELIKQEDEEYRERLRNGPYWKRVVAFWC

YAL060W = details: S. cerevisiae GFP-tagged strains, 3 h
YAL061W = details: S. cerevisiae GFP-tagged strains, 3 h
YBL087C = details: S. cerevisiae GFP-tagged strains, 3 h
YBR072W = details: S. cerevisiae GFP-tagged strains, 3 h
YBR139W = details: S. cerevisiae GFP-tagged strains, 3 h
YBR208C = details: S. cerevisiae GFP-tagged strains, 3 h
YBR248C = details: S. cerevisiae GFP-tagged strains, 3 h
YCL064C = details: S. cerevisiae GFP-tagged strains, 3 h
YCR002C = details: S. cerevisiae GFP-tagged strains, 3 h
YCR005C = details: S. cerevisiae GFP-tagged strains, 3 h
YDL130W = details: S. cerevisiae GFP-tagged strains, 3 h
YDL204W = details: S. cerevisiae GFP-tagged strains, 3 h
YDL205C = details: S. cerevisiae GFP-tagged strains, 3 h
YDR070C = details: S. cerevisiae GFP-tagged strains, 3 h
YDR382W = details: S. cerevisiae GFP-tagged strains, 3 h
YDR399W = details: S. cerevisiae GFP-tagged strains, 3 h
YDR453C = details: S. cerevisiae GFP-tagged strains, 3 h
YEL007W = details: S. cerevisiae GFP-tagged strains, 3 h
YEL060C = details: S. cerevisiae GFP-tagged strains, 3 h
YEL063C = details: S. cerevisiae GFP-tagged strains, 3 h
YEL071W = details: S. cerevisiae GFP-tagged strains, 3 h
YER081W = details: S. cerevisiae GFP-tagged strains, 3 h
YER117W = details: S. cerevisiae GFP-tagged strains, 3 h
YER151C = details: S. cerevisiae GFP-tagged strains, 3 h
YER156C = details: S. cerevisiae GFP-tagged strains, 3 h
YFR031C-A = details: S. cerevisiae GFP-tagged strains, 3 h
YFR053C = details: S. cerevisiae GFP-tagged strains, 3 h
YGL036W = details: S. cerevisiae GFP-tagged strains, 3 h
YGL062W = details: S. cerevisiae GFP-tagged strains, 3 h
YGL135W = details: S. cerevisiae GFP-tagged strains, 3 h
YGL147C = details: S. cerevisiae GFP-tagged strains, 3 h
YGR019W = details: S. cerevisiae GFP-tagged strains, 3 h
YGR034W = details: S. cerevisiae GFP-tagged strains, 3 h
YGR088W = details: S. cerevisiae GFP-tagged strains, 3 h
YGR121C = details: S. cerevisiae GFP-tagged strains, 3 h
YHL021C = details: S. cerevisiae GFP-tagged strains, 3 h
YHR018C = details: S. cerevisiae GFP-tagged strains, 3 h
YHR087W = details: S. cerevisiae GFP-tagged strains, 3 h
YHR141C = details: S. cerevisiae GFP-tagged strains, 3 h
YHR144C = details: S. cerevisiae GFP-tagged strains, 3 h
YHR203C = details: S. cerevisiae GFP-tagged strains, 3 h
YIL043C = details: S. cerevisiae GFP-tagged strains, 3 h
YIL051C = details: S. cerevisiae GFP-tagged strains, 3 h
YIL052C = details: S. cerevisiae GFP-tagged strains, 3 h
YIL066C = details: S. cerevisiae GFP-tagged strains, 3 h
YIL069C = details: S. cerevisiae GFP-tagged strains, 3 h
YJL056C = details: S. cerevisiae GFP-tagged strains, 3 h
YJL144W = details: S. cerevisiae GFP-tagged strains, 3 h
YJR148W = details: S. cerevisiae GFP-tagged strains, 3 h
YKL086W = details: S. cerevisiae GFP-tagged strains, 3 h
YKL103C = details: S. cerevisiae GFP-tagged strains, 3 h
YKL119C = details: S. cerevisiae GFP-tagged strains, 3 h
YKR039W = details: S. cerevisiae GFP-tagged strains, 3 h
YKR093W = details: S. cerevisiae GFP-tagged strains, 3 h
YKR094C = details: S. cerevisiae GFP-tagged strains, 3 h
YLL026W = details: S. cerevisiae GFP-tagged strains, 3 h
YLL039C = details: S. cerevisiae GFP-tagged strains, 3 h
YLR058C = details: S. cerevisiae GFP-tagged strains, 3 h
YLR109W = details: S. cerevisiae GFP-tagged strains, 3 h
YLR142W = details: S. cerevisiae GFP-tagged strains, 3 h
YLR185W = details: S. cerevisiae GFP-tagged strains, 3 h
YLR237W = details: S. cerevisiae GFP-tagged strains, 3 h
YLR287C-A = details: S. cerevisiae GFP-tagged strains, 3 h
YLR367W = details: S. cerevisiae GFP-tagged strains, 3 h
YML004C = details: S. cerevisiae GFP-tagged strains, 3 h
YML026C = details: S. cerevisiae GFP-tagged strains, 3 h
YML034W = details: S. cerevisiae GFP-tagged strains, 3 h
YML063W = details: S. cerevisiae GFP-tagged strains, 3 h
YML128C = details: S. cerevisiae GFP-tagged strains, 3 h
YMR105C = details: S. cerevisiae GFP-tagged strains, 3 h
YMR120C = details: S. cerevisiae GFP-tagged strains, 3 h
YMR251W-A = details: S. cerevisiae GFP-tagged strains, 3 h
YMR307W = details: S. cerevisiae GFP-tagged strains, 3 h
YNL015W = details: S. cerevisiae GFP-tagged strains, 3 h
YNL068C = details: S. cerevisiae GFP-tagged strains, 3 h
YNL112W = details: S. cerevisiae GFP-tagged strains, 3 h
YNL142W = details: S. cerevisiae GFP-tagged strains, 3 h
YNL214W = details: S. cerevisiae GFP-tagged strains, 3 h
YNR001C = details: S. cerevisiae GFP-tagged strains, 3 h
YOL052C-A = details: S. cerevisiae GFP-tagged strains, 3 h
YOR038C = details: S. cerevisiae GFP-tagged strains, 3 h
YOR063W = details: S. cerevisiae GFP-tagged strains, 3 h
YOR136W = details: S. cerevisiae GFP-tagged strains, 3 h
YOR173W = details: S. cerevisiae GFP-tagged strains, 3 h
YOR182C = details: S. cerevisiae GFP-tagged strains, 3 h
YOR371C = details: S. cerevisiae GFP-tagged strains, 3 h
YOR375C = details: S. cerevisiae GFP-tagged strains, 3 h
YPL111W = details: S. cerevisiae GFP-tagged strains, 3 h
YPL131W = details: S. cerevisiae GFP-tagged strains, 3 h
YPL150W = details: S. cerevisiae GFP-tagged strains, 3 h
YPL220W = details: S. cerevisiae GFP-tagged strains, 3 h
YPL265W = details: S. cerevisiae GFP-tagged strains, 3 h
YPR132W = details: S. cerevisiae GFP-tagged strains, 3 h
YPR145W = details: S. cerevisiae GFP-tagged strains, 3 h
YPR184W = details: S. cerevisiae GFP-tagged strains, 3 h

SMILES: CNc1nc(N)c([N+](=O)[O-])c(Nc2cccc(Cl)c2)n1
- GFP ratio to DMSO [1]: 0.961 (inactive)
- GFP ratio to DMSO (YAL060W): 0.91 (inactive)
- GFP ratio to DMSO (YAL061W): 0.887 (inactive)
- GFP ratio to DMSO (YBL087C): 0.955 (inactive)
- GFP ratio to DMSO (YBR072W): 0.849 (inactive)
- GFP ratio to DMSO (YBR139W): 0.935 (inactive)
- GFP ratio to DMSO (YBR208C): 1.16 (inactive)
- GFP ratio to DMSO (YBR248C): 1.01 (inactive)
- GFP ratio to DMSO (YCL064C): 0.902 (inactive)
- GFP ratio to DMSO (YCR002C): 0.916 (inactive)
- GFP ratio to DMSO (YCR005C): 2.27
- GFP ratio to DMSO (YDL130W): 1.06 (inactive)
- GFP ratio to DMSO (YDL204W): 0.851 (inactive)
- GFP ratio to DMSO (YDL205C): 0.943 (inactive)
- GFP ratio to DMSO (YDR070C): 1.14 (inactive)
- GFP ratio to DMSO (YDR382W): 1.1 (inactive)
- GFP ratio to DMSO (YDR399W): 0.977 (inactive)
- GFP ratio to DMSO (YDR453C): 1.02 (inactive)
- GFP ratio to DMSO (YEL007W): 0.89 (inactive)
- GFP ratio to DMSO (YEL060C): 0.826 (inactive)
- GFP ratio to DMSO (YEL063C): 1.09 (inactive)
- GFP ratio to DMSO (YEL071W): 2.01
- GFP ratio to DMSO (YER081W): 1.21 (inactive)
- GFP ratio to DMSO (YER117W): 0.883 (inactive)
- GFP ratio to DMSO (YER151C): 0.926 (inactive)
- GFP ratio to DMSO (YER156C): 1.01 (inactive)
- GFP ratio to DMSO (YFR031C-A): 1.02 (inactive)
- GFP ratio to DMSO (YFR053C): 0.888 (inactive)
- GFP ratio to DMSO (YGL036W): 0.781 (inactive)
- GFP ratio to DMSO (YGL062W): 1.65
- GFP ratio to DMSO (YGL135W): 1.07 (inactive)
- GFP ratio to DMSO (YGL147C): 0.988 (inactive)
- GFP ratio to DMSO (YGR019W): 1.02 (inactive)
- GFP ratio to DMSO (YGR034W): 1.01 (inactive)
- GFP ratio to DMSO (YGR088W): 1.07 (inactive)
- GFP ratio to DMSO (YGR121C): 1.02 (inactive)
- GFP ratio to DMSO (YHL021C): 1.11 (inactive)
- GFP ratio to DMSO (YHR018C): 0.948 (inactive)
- GFP ratio to DMSO (YHR087W): 0.926 (inactive)
- GFP ratio to DMSO (YHR141C): 1.04 (inactive)
- GFP ratio to DMSO (YHR144C): 0.837 (inactive)
- GFP ratio to DMSO (YHR203C): 1.04 (inactive)
- GFP ratio to DMSO (YIL043C): 1 (inactive)
- GFP ratio to DMSO (YIL051C): 0.981 (inactive)
- GFP ratio to DMSO (YIL052C): 0.864 (inactive)
- GFP ratio to DMSO (YIL066C): 0.868 (inactive)
- GFP ratio to DMSO (YIL069C): 1.1 (inactive)
- GFP ratio to DMSO (YJL056C): 0.808 (inactive)
- GFP ratio to DMSO (YJL144W): 0.983 (inactive)
- GFP ratio to DMSO (YJR148W): 1.71
- GFP ratio to DMSO (YKL086W): 0.896 (inactive)
- GFP ratio to DMSO (YKL103C): 1.21 (inactive)
- GFP ratio to DMSO (YKL119C): 0.951 (inactive)
- GFP ratio to DMSO (YKR039W): 1.35 (inactive)
- GFP ratio to DMSO (YKR093W): 1.61
- GFP ratio to DMSO (YKR094C): 1.06 (inactive)
- GFP ratio to DMSO (YLL026W): 1.07 (inactive)
- GFP ratio to DMSO (YLL039C): 0.725 (inactive)
- GFP ratio to DMSO (YLR058C): 0.859 (inactive)
- GFP ratio to DMSO (YLR109W): 1.3 (inactive)
- GFP ratio to DMSO (YLR142W): 0.835 (inactive)
- GFP ratio to DMSO (YLR185W): 1.04 (inactive)
- GFP ratio to DMSO (YLR237W): 0.77 (inactive)
- GFP ratio to DMSO (YLR287C-A): 1.04 (inactive)
- GFP ratio to DMSO (YLR367W): 1.01 (inactive)
- GFP ratio to DMSO (YML004C): 0.875 (inactive)
- GFP ratio to DMSO (YML026C): 0.93 (inactive)
- GFP ratio to DMSO (YML034W): 0.842 (inactive)
- GFP ratio to DMSO (YML063W): 1.04 (inactive)
- GFP ratio to DMSO (YML128C): 0.923 (inactive)
- GFP ratio to DMSO (YMR105C): 1.17 (inactive)
- GFP ratio to DMSO (YMR120C): 0.553
- GFP ratio to DMSO (YMR251W-A): 1.01 (inactive)
- GFP ratio to DMSO (YMR307W): 0.996 (inactive)
- GFP ratio to DMSO (YNL015W): 0.947 (inactive)
- GFP ratio to DMSO (YNL068C): 0.946 (inactive)
- GFP ratio to DMSO (YNL112W): 1.07 (inactive)
- GFP ratio to DMSO (YNL142W): 1.32 (inactive)
- GFP ratio to DMSO (YNL214W): 0.938 (inactive)
- GFP ratio to DMSO (YNR001C): 1.17 (inactive)
- GFP ratio to DMSO (YOL052C-A): 1.17 (inactive)
- GFP ratio to DMSO (YOR038C): 0.974 (inactive)
- GFP ratio to DMSO (YOR063W): 1.1 (inactive)
- GFP ratio to DMSO (YOR136W): 1.19 (inactive)
- GFP ratio to DMSO (YOR173W): 0.891 (inactive)
- GFP ratio to DMSO (YOR182C): 1.02 (inactive)
- GFP ratio to DMSO (YOR371C): 0.826 (inactive)
- GFP ratio to DMSO (YOR375C): 1.17 (inactive)
- GFP ratio to DMSO (YPL111W): 1.25 (inactive)
- GFP ratio to DMSO (YPL131W): 1.09 (inactive)
- GFP ratio to DMSO (YPL150W): 0.863 (inactive)
- GFP ratio to DMSO (YPL220W): 1.07 (inactive)
- GFP ratio to DMSO (YPL265W): 1.62
- GFP ratio to DMSO (YPR132W): 1.13 (inactive)
- GFP ratio to DMSO (YPR145W): 1.32 (inactive)
- GFP ratio to DMSO (YPR184W): 0.958 (inactive)
